pIC50: −log10 of the molar value. “And” between values parts separate entries of the source, which are not always exact repeats. Equal values may be shown once. Read-outs that look alike come from different tables or passages of the source.
Legend:
[1] = tested on: A2aAR-transfected HEK293 cells; experiment: Comet assay in A2aAR-transfected HEK293 cells; type: cell-based; settings: Homo sapiens, 100 μM H2O2, read-out: IC50, DNA damage protection
Protocol: (§1) A single-cell gel electrophoresis (SCGE) assay, known as the “Comer” assay was performed to detect/quantify DNA damage by identifying DNA-strand breakage in individual cells, for example. The assay was performed using a kit commercially-available from Trevigen, Inc., of Gaithersburg, Md., as “CometAssay™.” See P. J. McCarthy et al. (1997) Mutagenesis 12:209-214; A. R. Collins et al. (2001) Biochem. Soc. Trans. 29:337-341. Sub-confluent cells were washed with phosphate buffered saline (PBS) and detached from the tissue culture flasks using a 0.05% trypsin solution. After centrifugation, the cells were washed and re-suspended in serum-free DMEM medium. […]
(§2) The slides were placed at 4° C. in the dark for ten minutes and subsequently immersed in pre-chilled Lysis Solution at 4° C. for an additional thirty minutes. […] Comet tail fluorescence intensity was quantified with a Diagnostic Instruments digitized camera, mounted on a Nikon Eclipse E400 microscope, using Scion Image software. Quantification of comet fluorescence was performed as described in P. J. McCarthy et al. (1997) Mutagenesis 12:209-214. […] The data are shown either in arbitrary fluorescent units, or as % DNA damage protection (i.e., the percent decrement in tail fluorescence intensity with test reagent, relative to the intensity recorded in cells treated with hydrogen peroxide only)±S.E.M. […]

[2] = tested on: human fibroblastoid M1 cells; experiment: Measurement of ROS (DCFH-DA fluorescence); type: cell-based; settings: for H2O2-induced ROS formation: 10 μM agent, 100 μM H2O2, FIG. 4
Protocol: The presence of reactive oxidative species was measured using commercially-available equipment in accordance with the manufacturer's instructions. Specifically, sub-confluent cells were detached from flasks using 0.05% trypsin and 5×10^3 human fibroblastoid M1 cells per well were seeded into 96-well plates (Falcon 35-3072). After an overnight culture, the cells were twice washed with DMEM-phenol red-free medium. The cells were subsequently treated with various concentrations of signal-modulating agents in the presence of 10 micromolar (μM) DCFH-DA in 100 microliters (μl) DMEM-phenol red-free medium at 37° C. for 30 minutes. This medium was replaced by a 100 μl DMEM-phenol red-free medium containing DCFH-DA and either 50 mU/ml GO, or 100 μM H2O2, and the cultures were subsequently incubated at 37° C. for 30 minutes. After thirty minutes incubation, the plates were read by CytoFluor™ 2300 (Millipore) at an excitation wavelength (Ex) of 480 nm and emission wavelength (Em) of 520 nm, or by Fusion-Alpha HT system (PerkinElmer Life Sciences, Boston, Mass.) at Ex 485 nm and Em 530 nm.
ROS levels were quantified using the Fusion-Alpha HT system, as described above.
To verify the efficiency of that pathway, DCFH-DA-loaded human fibroblastoid M1 cells were incubated with 10 μM 2-chloroadenosine for thirty minutes followed by incubation with 100 μM H2O2 for twenty minutes to induce oxidative stress. […] ROS levels were quantified using the CytoFluor™ 2300 system, as described above.

[3] = tested on: A2bAR-transfected HEK293 cells; experiment: Comet assay in A2bAR-transfected HEK293 cells; type: cell-based; settings: Homo sapiens, 100 μM H2O2, read-out: IC50, DNA damage protection
Protocol: as §1, §2

[4] = tested on: A1AR-transfected HEK293 cells; experiment: Comet assay in A1AR-transfected HEK293 cells; type: cell-based, human
Protocol: A single-cell gel electrophoresis (SCGE) assay, known as the “Comer” assay was performed to detect/quantify DNA damage by identifying DNA-strand breakage in individual cells, for example. The assay was performed using a kit commercially-available from Trevigen, Inc., of Gaithersburg, Md., as “CometAssay™.” See P. J. McCarthy et al. (1997) Mutagenesis 12:209-214; A. R. Collins et al. (2001) Biochem. Soc. Trans. 29:337-341. Sub-confluent cells were washed with phosphate buffered saline (PBS) and detached from the tissue culture flasks using a 0.05% trypsin solution. After centrifugation, the cells were washed and re-suspended in serum-free DMEM medium. The cells were divided into Eppendorf tubes (1.5 ml), and centrifuged at 2500 rotations per minutes (rpm) for ten minutes. Signal-modulating agents were added and samples were kept in a 37° C. incubator for thirty minutes. In some experiments, the cells were pre-incubated with various inhibitors for the indicated times at 37° C. At the end of the incubation period with signal-modulating chemicals, the cells were washed with PBS and treated with 100 μM H2O2 in 0.5 ml PBS on ice for twenty minutes. Following the hydrogen peroxide treatment, the cells were immediately microfuged for fifteen seconds. The cells were twice washed with cold PBS, and re-suspended at 1.0×10^5 cells/ml in ice-cold PBS. […]
as §2

[5] = tested on: human fibroblastoid M1 cells; experiment: Comet assay, inhibition of 2CA- or IPP-mediated DNA damage protection by antagonists/inhibitors; type: cell-based; set-up: key to Mechanism of Signal Transduction: PKA / Mechanism of Signal Transduction: Mevalonate Pathway / Mechanism of Signal Transduction: GGT / Mechanism of Signal Transduction: FT / Mechanism of Signal Transduction: Proteasome: “+” indicates a dependence; “−” indicates independence
Protocol: (§3) A single-cell gel electrophoresis (SCGE) assay, known as the “Comer” assay was performed to detect/quantify DNA damage by identifying DNA-strand breakage in individual cells, for example. The assay was performed using a kit commercially-available from Trevigen, Inc., of Gaithersburg, Md., as “CometAssay™.” See P. J. McCarthy et al. (1997) Mutagenesis 12:209-214; A. R. Collins et al. (2001) Biochem. Soc. Trans. 29:337-341. Sub-confluent cells were washed with phosphate buffered saline (PBS) and detached from the tissue culture flasks using a 0.05% trypsin solution. After centrifugation, the cells were washed and re-suspended in serum-free DMEM medium. The cells were divided into Eppendorf tubes (1.5 ml), and centrifuged at 2500 rotations per minutes (rpm) for ten minutes. Signal-modulating agents were added and samples were kept in a 37° C. incubator for thirty minutes. In some experiments, the cells were pre-incubated with various inhibitors for the indicated times at 37° C. At the end of the incubation period with signal-modulating chemicals, the cells were washed with PBS and treated with 100 μM H2O2 in 0.5 ml PBS on ice for twenty minutes. Following the hydrogen peroxide treatment, the cells were immediately microfuged for fifteen seconds. The cells were twice washed with cold PBS, and re-suspended at 1.0×10^5 cells/ml in ice-cold PBS. Five microliter cell suspension were each mixed with 50 μl molten LMAgarose and, thereafter, the mixtures were placed onto slides (CometSlide™).
(§4) The slides were placed at 4° C. in the dark for ten minutes and subsequently immersed in pre-chilled Lysis Solution at 4° C. for an additional thirty minutes. Following this incubation, excess buffer was tapped off from the slides. Subsequently, the slides were placed in a 50 ml Coplin jar containing alkali buffer for thirty minutes at room temperature in the dark and then immersed in 50 ml of TBE buffer for five minutes. The slides were then placed flat onto a gel tray submerged in TBE buffer in a horizontal electrophoresis apparatus, and aligned equidistant from the electrodes. Electrophoresis was performed at one volt per centimeter (cm) for ten minutes. Following this electrophoresis, the samples were fixed in 100% methanol for five minutes and 100% ethanol for five minutes. After drying, 50 μl of diluted SYBR Green Concentrate was added onto each circle of agarose. Comet tail fluorescence intensity was quantified with a Diagnostic Instruments digitized camera, mounted on a Nikon Eclipse E400 microscope, using Scion Image software. Quantification of comet fluorescence was performed as described in P. J. McCarthy et al. (1997) Mutagenesis 12:209-214. Each data point was derived from 30 to 100 individual cells. The data are shown either in arbitrary fluorescent units, or as % DNA damage protection (i.e., the percent decrement in tail fluorescence intensity with test reagent, relative to the intensity recorded in cells treated with hydrogen peroxide only)±S.E.M.
Specifically, […], human fibroblastoid M1 cells were incubated for thirty minutes in either H-89 or 8-bromoguanosine-3′,5′-cyclic monophosphate (8-Br-cGMP) (B), or for fifteen minutes in SNAP, at different concentrations. […] Following induction of oxidative stress, DNA damage was quantified using the Comet assay, as described above. Shown in FIGS. 14-16 are graphs illustrating the DNA damage protection as function of the molar concentration of H-89 (FIG. 14), 8-Br-cGMP (FIG. 15), and SNAP (FIG. 16).
In yet another test, human fibroblastoid M1 cells were pre-incubated for fifteen minutes with different concentrations of the A2bAR antagonist, enprofylline (Enpro).

[6] = tested on: human fibroblastoid M1 cells; experiment: Measurement of cAMP levels (EIA kit); type: cell-based; settings: 10 μM agent, in presence of RO20-1724; FIG. 18
Protocol: Cyclic AMP levels were measured using a kit that is commercially-available from Amersham Biosciences of Piscataway, N.J., under the name “EIA Kit” (Cat. No. RPN225). Specifically, human fibroblastoid M1 cells were cultured overnight in 6-well tissue culture plates, 2×10^5 cells per well. Before stimulation, the cells were washed once with serum-free DMEM medium and incubated in 37° C. with 0.2 millimolar (mM) RO20-1724, a phosphodiesterase inhibitor, for fifteen minutes. Following this incubation period, 10 μM of either 2-chloroadenosine or isopentenyl diphosphate were added to each cell culture, and the cells cultures were thereafter maintained at 37° C. for the indicated time in the presence of phosphodiesterase inhibitor (RO20-1724). Determination of cAMP levels was performed with the EIA Kit in accordance with its manufacturer's instructions.
In another test, human fibroblastoid M1 cells also were stimulated with 10 μM 2-chloroadenosine or isopentenyl diphosphate, and cAMP levels were quantified.

[7] = tested on: p53-deficient cell lines HL60 and K562 and the nucleotide excision repair-deficient line XPA; experiment: DNA damage protection in p53-deficient and nucleotide excision repair-deficient lines (data not shown); type: cell-based
[8] = tested on: murine L-cell fibroblasts, human cells of lymphoid, fibroblastoid, myeloid, or neuronal lineages; experiment: Antioxidative signaling in other cell lineages and species (data not shown); type: cell-based
[9] = tested on: human fibroblastoid M1 cells; experiment: Comet assay, protection against H2O2-induced DNA damage; type: cell-based; settings: for IC50: read-out: IC50 (pM), DNA damage protection; for pIC50: read-out: IC50, DNA damage protection
Protocol: as §3, §4
A dose response analysis of DNA damage protection also was performed to determine the efficacy of various doses of isopentenyl diphosphate versus 2-chloroadenosine. The analysis was carried out by pre-incubating human fibroblastoid M1 cells for thirty minutes with different concentrations of isopentenyl diphosphate or 2-chloroadenosine prior to incubating the cells with 100 μM H2O2 to induce oxidative stress. Following induction of oxidative stress, DNA damage was quantified using the Comet assay, as described above.

[10] = dependence of DNA damage protection signaling

## Nc1nc(Cl)nc2c1ncn2[C@@H]1O[C@H](CO)[C@@H](O)[C@H]1O [2CA, 2-chloroadenosine]
[1]
  pIC50: 6.85
[2]
  H2O2-induced ROS formation: equivalent inhibition of H2O2-induced ROS formation
[3]
  pIC50: 6.92
[4]; A1AR-transfected HEK293 cells, 100 μM H2O2
  DNA damage protection response: failed to transduce the antioxidative signal
[5]; [10]
  Mechanism of Signal Transduction: FT: −
  Mechanism of Signal Transduction: GGT: −
  Mechanism of Signal Transduction: Mevalonate Pathway: −
  Mechanism of Signal Transduction: PKA: +
  Mechanism of Signal Transduction: Proteasome: −
[6]
  c[AMP]i over time: triggered an increase
[7]; HL60, K562, XPA, data not shown
  DNA damage protection induction: intact DNA damage protection induction
[8]; data not shown
  response to antioxidative signaling: all could respond
[9]; 10 μM agent, 100 μM H2O2 for twenty minutes, FIG. 5
  H2O2-mediated DNA damage: prevented H2O2-mediated DNA damage
[9]; Homo sapiens, AR agonists and isoprenyls, M1 cells, 100 μM H2O2, Comet assay
  IC50: 2040 pM
[9]; Homo sapiens, M1 cells pre-incubated thirty minutes, then 100 μM H2O2, FIGS. 6 and 7
  pIC50: 8.69
[9]; M1 cells, various concentrations, 100 μM H2O2
  triggering of DNA damage protection: triggered DNA damage protection

## C=C(C)CCOP(=O)(O)OP(=O)(O)O [IPP, isopentenyl diphosphate]
[2]
  H2O2-induced ROS formation: equivalent inhibition of H2O2-induced ROS formation
[2]; different concentrations, 50 mU/ml GO for thirty minutes, FIG. 3
  ROS generation: efficient at blocking ROS generation
[4]
  DNA damage protection response: responded readily
[5]
  Mechanism of Signal Transduction: FT: −
  Mechanism of Signal Transduction: GGT: +
  Mechanism of Signal Transduction: Mevalonate Pathway: +
  Mechanism of Signal Transduction: PKA: −
  Mechanism of Signal Transduction: Proteasome: +
[6]
  c[AMP]i over time: did not trigger any meaningful increase
[7]
  DNA damage protection induction: intact DNA damage protection induction
[8]
  response to antioxidative signaling: all could respond
[9]
  H2O2-mediated DNA damage: prevented H2O2-mediated DNA damage
  potency relative to 2-chloroadenosine: about 100 times
  triggering of DNA damage protection: triggered DNA damage-protection signaling
  IC50: 17 pM
  pIC50: 10.77 and ~10.77

Reference: US20050215529A1, “Method of treating oxidative stress-associated conditions with isopentenyl diphosphate” (THE REGENTS OF THE UNIVERSITY OF MICHIGAN, priority 2004, published 2005)
